In patent publication US10519133B2, “Vinyl compounds as FGFR and VEGFR inhibitors” (MEDSHINE DISCOVERY INC., priority 2015, dated 2019):

Key:
FGFR1 = target: T1, FGFR1 (Homo sapiens, UniProt P11362); test: Z′-LYTE Detection Kinase Assay, in vitro enzymatic activity; type: biochemical; settings: 0.6 nM FGFR1, 2 uM Tyr4 peptide, 10 uM ATP, 60 min 23° C.
T1 construct: purchased Invitrogen PV4105
Experimental: To measure enzyme activity by Z′-LYTE™ Detection Kinase Assay, and to evaluate the inhibitory effect of the compounds on FGFR1 using IC50 value of the compounds as an indicator. […]
Reaction Buffer: 50 mM Hepes (pH 7.5), 10 mM MgCl2, 1 mM EGTA, 0.01% Brij-35, 1 mM DTT, 2 mM MnCl2 0.6 nM FGFR1, 2 uM Tyr4 peptide and 10 uM ATP in reaction buffer (50 mM Hepes, pH 7.5, 10 mM MgCl2, 0.01% BRIJ-35, 1 mM EGTA, 4 mM MnCl2, 2 mM DTT). a. Diluting the compounds with DMSO to 10 mM, 3-fold dilution, 11 gradients, duplicate wells. b. Diluting the compound by 1:25 into middle plate at Bravo Automatic Liquid Station, then transferring 2.5 ul to the reaction plate to ensure the final DMSO concentration to be 1%. c. Transferring 5 ul of enzyme/substrate buffer into each well d. Using Multidrop Liquid Workstation to sequentially add ATP solution to each well e. Centrifuging at 1000 rpm for 1 minute f. Placing the reaction plate in an incubator at 23° C. to react for 60 min. a. Preparing a 1:128 mixture of Development Regent B and Development Buffer b. Adding 5 ul to each well and centrifuging at 1000 rpm for 1 minute c. Placing the reaction plate in a thermostat (23° C.) after centrifuging for 90 minutes, removing and reading on Envision (Perkin Elmer) Plate Reader
D. Analyzing Data: Analyzing Data Using XLFIT (IDBS) and Calculating IC50 Values for the Compounds.

[1] = tested on: FGFR1/2 Highly Expressed Patient-derived Liver Tumor Transplantation Model; test: Tumor growth inhibition (TGI) analysis; type: in vivo, mice; settings: BID
Experimental: The evolutionary growth potential of tumors was evaluated by the relationship between tumor volume and time. The long axis (L) and short axis (W) of the subcutaneous tumor were measured twice a week by the caliper and the tumor volume (TV) was calculated by the formula ((L×W^2)/2). TGI was calculated from the difference between the median tumor volume in the solvent group mice and the median tumor volume in the drug group mice, expressed as a percentage counting for the median tumor volume in the solvent control group, calculated by the following formula: % TGI=((median tumor volume(control)−median tumor volume(dosing group))/median tumor volume(control group))×100
The original statistical analysis was done by repeating the analysis of variance, followed by Scheffe psot hoc experimental method for multiple comparisons, with solvent alone (0.5% methylcellulose+0.2% Tween in water) as negative control.

SNU-16 cell = test: CellTiter-Glo Luminescent Cell Viability Assay; type: cell-based; settings: Homo sapiens, 72 h; SNU-16 cells, 3 days; read-out: SNU-16 IC50 (CellTiter-Glo Detection)
Experimental: To detect the change of intracellular ATP by CellTiter-Glo® Luminescent Cell Viability Assay, and to evaluate the inhibitory effect of the compounds on in vitro cell SNU-16 using IC50 value of the compounds as an indicator.
Cell line: SNU-16 cell strain d. Diluting SNU-16 with medium, adding the diluted cells to the 384 plate (Greiner. 781090) (50 μL/well, SNU-16 cell 750 cells/well) with multi-channel pipette. Placing the cell plate in a 37° C., 5% CO2 incubator overnight. […]
g. Diluting the compound with DMSO to 10 mM, 3-fold dilution, 11 gradients, duplicate wells. h. Transferring 2.4 ul of the compound to the middle plate added with 47.6 ul of cell culture media at Bravo Automatic Liquid Station. Then transferring 5 ul to the cell culture plate (55 ul) to ensure the final DMSO concentration to be 0.4%. […]
i. Placing the cell culture plate in 5% CO2 incubator at 37° C. to continue cultivating for 3 days. d. Balancing Cell Titer Glo Reagent to room temperature e. Taking 30 ul of Cell Titer Glo Reagent in a 1:2 ratio into each well and gently mixing for 2 minutes f. Placing the cell culture plate in an incubator (23° C.) for 10 minutes, taking out and centrifuging at 1000 rpm for 1 minute g. Reading on Envision (Perkin Elmer) Plate Reader.
H. Analyzing Data: Analyzing the Data Using XLFIT (IDBS) and Calculating IC50 Values for the Compounds.

[2] = female, Balb/c nude, mouse, in vivo, 2 mg/kg
Experimental: (§1) Experimental Procedure: A clear solution of the test compound in 20% DMSO/60% PEG400/20% water at 0.4 mg/ml was administered by intragastric administration to female Balb/c nude mice (fasted overnight, 7-9 weeks of age) with a dose of 2 mg/kg. About 30 μL of blood was collected from the jugular vein or caudal vein at 0.25, 0.5, 1.0, 2.0, 4.0, 8.0 and 24 h after administration in both groups of animals, placed in anticoagulation tube with EDTA-K2 and the plasma was centrifuged. Plasma concentrations were determined by LC-MS/MS and related pharmacokinetic parameters were calculated using the non-compartmental model linear logarithmic trapezoidal method using WinNonlin™ Version 6.3 (Pharsight, Mountain View, Calif.) pharmacokinetic software.

in vivo = settings: female, Balb/c nude, mouse, po, 2 mg/kg
Experimental: as §1

T1 sequence (P11362 22-822): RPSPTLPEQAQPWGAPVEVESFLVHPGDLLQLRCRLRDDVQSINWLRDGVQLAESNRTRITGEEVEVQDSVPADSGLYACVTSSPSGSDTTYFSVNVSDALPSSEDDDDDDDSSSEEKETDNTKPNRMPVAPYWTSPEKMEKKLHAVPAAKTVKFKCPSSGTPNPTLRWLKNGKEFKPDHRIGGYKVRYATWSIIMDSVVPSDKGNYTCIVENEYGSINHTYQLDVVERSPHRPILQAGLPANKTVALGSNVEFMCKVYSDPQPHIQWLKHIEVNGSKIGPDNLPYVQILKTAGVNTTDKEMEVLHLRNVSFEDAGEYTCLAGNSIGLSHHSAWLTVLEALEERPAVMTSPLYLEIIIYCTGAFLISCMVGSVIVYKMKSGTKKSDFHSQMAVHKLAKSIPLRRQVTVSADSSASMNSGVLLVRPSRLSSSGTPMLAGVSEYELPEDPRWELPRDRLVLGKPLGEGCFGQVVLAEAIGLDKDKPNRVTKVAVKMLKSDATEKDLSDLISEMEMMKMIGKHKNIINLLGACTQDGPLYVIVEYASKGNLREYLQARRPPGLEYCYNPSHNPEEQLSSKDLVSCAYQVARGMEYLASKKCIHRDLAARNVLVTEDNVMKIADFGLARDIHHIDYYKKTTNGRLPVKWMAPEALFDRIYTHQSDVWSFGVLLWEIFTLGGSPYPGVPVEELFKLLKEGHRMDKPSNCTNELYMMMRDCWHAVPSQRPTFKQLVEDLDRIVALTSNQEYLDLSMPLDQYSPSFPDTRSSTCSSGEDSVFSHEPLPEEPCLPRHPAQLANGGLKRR

IC50 (FGFR1) [nM]	SMILES	TGI % (last administration) ([1]; 15 mg/kg) [%]	also measured
10 to 50	CC(Oc1ccc2[nH]nc(/C=C(\F)c3ccc(CN4CCOCC4)nc3)c2c1)c1c(Cl)cncc1Cl (stereo not drawn) [Example 16]	84.5	IC50 (SNU-16 cell): ≤ 10 nM
≤ 10	C[C@@H](Oc1ccc2[nH]nc(/C=C(\F)c3ccc(CNC4CCOCC4)nc3)c2c1)c1c(Cl)cncc1Cl [Example 18]	–	TGI % (last administration) ([1]; 5 mg/kg): 85%
≤ 10	CC(Oc1ccc2[nH]nc(/C=C/c3ccc(CN4CCOCC4)nn3)c2c1)c1c(Cl)cncc1Cl (stereo not drawn) [Example 54]	–	TGI % (last administration) ([1]; 10 mg/kg): 85.4%
10 to 50	CC(Oc1ccc2[nH]nc(/C=C/c3ccc(CN4CCOCC4)cc3)c2c1)c1c(Cl)cncc1Cl (stereo not drawn) [Example 63]	86	–
–	CC(Oc1ccc2[nH]nc(/C=C/c3ccc(CN4CCOCC4)cc3)c2c1)c1c(Cl)cncc1Cl (stereo not drawn) [WX_063]	–	peak time [2]: 0.25 h; AUC(0-t) (in vivo): 0.221 ± 0.0713 µM·h; Cmax (in vivo): 214 ± 39.7 nM
